The numbers were not newly measured in patent US12150927B2, “Use of cannabidiolic acid in the treatment of autism spectrum disorder and associated disorders” (GW Research Limited, priority 2016, dated 2024), which cites them from elsewhere.

The conditions of the series: background statement; cited from earlier work.

For `Cc1c(C(=O)NN2CCCCC2)nn(-c2ccc(Cl)cc2Cl)c1-c1ccc(Cl)cc1` [rimonabant], the side effects entry was “serious side effects such as suicide ideation”.
